Source: publication PMC12656327 (Pharmaceutics, 2025)
Where “and” joins values, the source holds several entries; their conditions need not be identical. Equal entries are not always repeated. Where two headings read alike, the source gives them in different places.

Legend:
[1] = NO release, Griess assay (phosphate buffer pH 7.4 with L-cysteine); assay type: physicochemical; settings: for NO Released (%) 1 h: 1 h incubation, expressed as % NO2− (μmol/μmol), Griess assay, physiological conditions, furoxan 100 µM; for NO Released (%) 24 h: 24 h incubation; for NO Released (%) 24 h / NO Released (%) 48 h: % NO2− (μmol/μmol); for NO Released (%) 48 h: 48 h incubation; for NO-donor ranking (in words): among all tested compounds
[2] = system: MRC-5 (human embryonic lung fibroblast) cells; assay: MTT cytotoxicity, MRC-5 cells, 72 h; assay type: cell-based; settings: MRC5, 72 h exposure
[3] = system: JU77 (human malignant mesothelioma) cells; settings: for SF JU77 (selectivity factor): ratio of the IC50 value in MRC-5 to that in JU77
[4] = system: AB1 (mouse malignant mesothelioma) cells; assay: cells; settings: AB1, 72 h, read-out: IC50 AB1
[5] = system: JU77 (human malignant mesothelioma) cells; assay: cells; settings: 72 h, read-out: IC50 JU77
[6] = system: AB1 cells; assay: NO release in vitro in AB1 cells (Griess reagent); assay type: cell-based, mouse; settings: 25 μM, 24 h, relative to untreated cells
[7] = system: AB1 cells; assay: JC-1 assay of mitochondrial membrane potential; assay type: cell-based, mouse; settings: for mitochondrial membrane depolarization (in words): 25 µM; for JC-1 Aggregates / JC-1 Monomers: representative dot plot
[8] = system: AB1 cells; assay: Annexin V/PI assay, flow cytometry; assay type: cell-based, mouse; settings: 25 µM, 24 h
[9] = system: AB1 and JU77 cell lines; assay: cells; settings: MPM, 72 h, read-out: IC50 (cytotoxicity) in both MPM cell lines
[10] = system: AB1 (mouse malignant mesothelioma) cells
[11] = system: AB1 and JU77 cell lines
[12] = set-up: method as in PMID 40006597; settings: % NO2− (μmol/μmol), cited from earlier work; for NO Released (%) 1 h: 1 h incubation; for NO Released (%) 24 h: 24 h incubation; for NO Released (%) 48 h: 48 h incubation
[13] = Stability in DMSO-d6 by 1H NMR spectroscopy; assay type: physicochemical; settings: DMSO-d6, 1H NMR spectra after 1, 20, 48 and 120 h
Excerpt: For the synthesis of the target bis(1,2,4-oxadiazolyl)furoxans, we employed a synthetic approach based on the reaction of readily available furoxanylbis(amidoxime) 1c with in situ activated carboxylic acids, except for compound 2a, which was synthesized using orthoformate in the presence of boron trifluoride etherate. Specifically, activation of the corresponding carboxylic acid with 1,1′-carbonyldiimidazole, followed by the addition of bis(amidoxime) 1c and 1,4-diazabicyclo [2.2.2]octane (DABCO) as a base to promote the heterocyclization step, afforded the desired heterocyclic assemblies 2b–l (Scheme 1, Figures S1–S24). […] The stability of the synthesized heterocyclic compounds was further examined in DMSO-d6 via ^1H NMR spectroscopy. The representative compound 2j was completely stable in solution for at least 120 h. The corresponding set of ^1H NMR spectra recorded for 2j after 1, 20, 48, and 120 h is provided in the (supporting information (SI) Figure S25).
Figure S25. Stability of the representative compound 2j for 1 h, 20 h, 48 h and 120 h in DMSO -[d6] according to 1H NMR spectroscopy.
(1 picture or pasted object on this page, not shown here)

[14] = system: AB1 (mouse malignant mesothelioma) cells; set-up: method as in PMID 40006597; settings: MTT, 72 h exposure; cited from earlier work
[15] = system: JU77 (human malignant mesothelioma) cells; set-up: method as in PMID 40006597; settings: MTT, 72 h exposure; cited from earlier work
[16] = system: MRC-5 (human embryonic lung fibroblast) cells; set-up: method as in PMID 40006597; settings: MTT, 72 h exposure; cited from earlier work
[17] = positive control, 20 μM, 30 min

SMILES	NO Released (%) 1 h [1] [%]	NO Released (%) 24 h [1] [%]	NO Released (%) 48 h [1] [%]	IC50 [2] [µM]	SF JU77 (selectivity factor) [3]	IC50 [4] [µM]	IC50 [5] [µM]	intracellular NO release (in words) [6]	also measured
O=[N+]([O-])c1cccc(-c2nc(-c3no[n+]([O-])c3-c3noc(-c4cccc([N+](=O)[O-])c4)n3)no2)c1 [2c]	37 ± 1	49 ± 2	63 ± 2	27.9 ± 4.6	3.8	19.9 ± 4.3	7.3 ± 1	–	–
[O-][n+]1onc(-c2noc(-c3ccccc3Cl)n2)c1-c1noc(-c2ccccc2Cl)n1 [2k]	37 ± 5	41 ± 8	43 ± 7	7.8 ± 2.3	–	15.5 ± 3	4.9 ± 1.2	low	mitochondrial membrane depolarization (in words) ([7]; 24 h): least mitochondrial damage; JC-1 Aggregates ([7]; 25 μM, 24 h): 96.3%; JC-1 Monomers ([7]; 25 μM, 24 h): 3.7%; induction of apoptosis/necrosis (in words) [8]: did not induce significant cancer cell death
O=[N+]([O-])c1ccccc1-c1nc(-c2no[n+]([O-])c2-c2noc(-c3ccccc3[N+](=O)[O-])n2)no1 [2d]	54 ± 14	69 ± 14	72 ± 13	16.8 ± 5.7	5.7	11.2 ± 2	3 ± 0.4	highest levels of intracellular NO	IC50 [9]: 3 to 14 µM
N#CC(C#N)=NNc1cccc(Cl)c1 [CCCP, carbonyl cyanide 3-chlorophenylhydrazone, reference compound]	–	–	–	–	–	–	–	–	JC-1 Aggregates [7, 17]: 30.1%; JC-1 Monomers [7, 17]: 69.9%
[O-][n+]1onc(-c2noc(-c3ccccc3)n2)c1-c1noc(-c2ccccc2)n1 [2e]	51 ± 10	61 ± 12	64 ± 2	17.7 ± 3.8	1.6	33.9 ± 3.4	10.5 ± 0.5	minimal NO release	cytotoxic effects in the AB1 cell line (in words) [10]: no cytotoxic effects
Cc1ccc(-c2nc(-c3no[n+]([O-])c3-c3noc(-c4ccc(C)cc4)n3)no2)cc1 [2h]	37 ± 5	52 ± 1	56 ± 1	> 25	>1.6	> 25	16 ± 3.9	minimal NO release	cytotoxic effects in the AB1 cell line (in words) [10]: no cytotoxic effects; cytotoxicity (in words) [11]: lacked cytotoxic effects
NC(=O)c1c(CO)no[n+]1[O-] [CAS-1609, 3-carbamoyl-4-(hydroxymethyl)furoxan]	–	–	–	–	–	–	–	–	NO Released (%) 1 h [12]: 27% and 27 ± 3%; NO Released (%) 24 h [12]: 68 ± 6%; NO Released (%) 48 h [12]: 73 ± 6%
[O-][n+]1onc(-c2noc(-c3ccncc3)n2)c1-c1noc(-c2ccncc2)n1 [2f]	71 ± 15	94 ± 15	103 ± 14	29.9 ± 1.6	2.1	8.5 ± 2.1	14.1 ± 4.1	highest levels of intracellular NO and high	NO-donor ranking (in words) [1]: most effective NO donors; total amount of released NO ([1]; with longer incubation periods): exceeded 100%; mitochondrial membrane depolarization (in words) ([7]; 24 h): markedly higher and relatively comparable levels of depolarization; JC-1 Aggregates ([7]; 25 μM, 24 h): 87.6%; JC-1 Monomers ([7]; 25 μM, 24 h): 12.4%; increase of cytotoxicity in AB1 cells relative to 2a [10]: 1.4 fold; decrease of cytotoxicity in JU77 cells relative to 2a [3]: 1.6 fold; IC50 [9]: 3 to 14 µM
CCOc1no[n+]([O-])c1S(=O)(=O)c1ccccc1 [CHF-2363, 4-ethoxy-3-phenylsulfonylfuroxan]	–	–	–	–	–	–	–	–	NO Released (%) 1 h [12]: 26% and 26 ± 10%; NO Released (%) 24 h [12]: 71 ± 4%; NO Released (%) 48 h [12]: 77 ± 9%
COc1ccc(-c2nc(-c3no[n+]([O-])c3-c3noc(-c4ccc(OC)c(OC)c4)n3)no2)cc1OC [2j]	35 ± 2	37 ± 3	39 ± 5	25.7 ± 8.7	1.3	21.7 ± 4.5	19.7 ± 2.1	–	time completely stable in solution [13]: at least 120 h
N.N.[Cl][Pt][Cl] [Cisplatin, cisplatin]	–	–	–	–	–	–	–	–	IC50 [14]: 5.8 ± 1 µM; IC50 [15]: 4.2 ± 0.5 µM; IC50 [16]: 3.1 ± 1.2 µM
O=[N+]([O-])c1ccc(-c2nc(-c3no[n+]([O-])c3-c3noc(-c4ccc([N+](=O)[O-])cc4)n3)no2)cc1 [2b]	38 ± 3	46 ± 1	48 ± 2	> 25	–	> 25	> 25	minimal NO release	–
COc1ccc(-c2nc(-c3no[n+]([O-])c3-c3noc(-c4ccc(OC)cc4)n3)no2)cc1 [2i]	75 ± 1	78 ± 5	89 ± 3	> 25	–	> 25	> 25	minimal NO release	NO-donor ranking (in words) [1]: most effective NO donors; cytotoxic effects in the AB1 cell line (in words) [10]: no cytotoxic effects; cytotoxicity (in words) [11]: lacked cytotoxic effects
